Legend:
TRPV4 = target: T1, TRPV4 (Mus musculus, UniProt Q9EPK8); assay: Whole-cell patch clamp in CHO cells transfected with mouse Trpv4 cDNA; type: cell-based; conditions: miR-711 10 μM; GSK1016790A 1 μM
T1 construct: expressed in transfected cells; host or cells: CHO cells (ATCC CRL-9096), plasmid pcDNA3.1-mTrpv4, a gift from Korea University
Protocol: (§1) Constructs. The cDNAs of mouse pcDNA3.1-Trpa1, pcDNA3.1-Trpv1, pcDNA3.1-Trpv2, pcDNA3.1-Trpv3, and pcDNA3.1-Trpv4 were kindly provided Dr. Sun Work Hwang from Korea University. Mouse Trpa1 cDNA was subcloned into pCGN-HA backbone (Addgene) using In-Fusion HD Cloning Kit (Clontech Laboratories, CA). Q5 Site-Directed Mutagenesis Kit was used to generate mTrpa1 mutant (M1-M13) based on pCGN-mTrpa1.
(§2) Cell Culture and Transfection. CD4^+ Myla cell line was cultured in RPMI 1640 media (GIBCO), supplemented with 2 mM Glutamine (GIBCO), 100 U/mL IL-2 (Sigma), 100 U/mL IL-4 (Sigma), and 10% human AB serum (Sigma). HuT 102 cell line was cultured in RPMI 1640 supplemented with pyruvate, HEPES, and 10% (v/v) fetal bovine serum (HyClone). HEK293-hTRPA1 stable cell line was cultured in MEM (GIBCO) containing 2 mM Glutamine, 4 μg/mL Blasticidin, 10% FBS (v/v). B16 and CHO cells were cultured in high glucose (4.5 g/L) Dulbecco's Modified Eagle's Medium (GIBCO) containing 10% (v/v) fetal bovine serum (GIBCO). Culture media were supplemented with 50 units/mL of penicillin and 50 μg/mL streptomycin, and cultures were maintained with 5% CO2 in 37° C. incubator. Transfection (2 μg cDNA) was performed with Lipofectamine™ 2000 Reagent (Invitrogen) at 80% confluency and the transfected cells were cultured in the same media for 48 hr before electrophysiological and biochemical studies. […]

TRPV2 = target: T2, TRPV2 (Mus musculus, UniProt Q9WTR1); assay: Whole-cell patch clamp in CHO cells transfected with mouse Trpv2 cDNA; type: cell-based; conditions: miR-711 10 μM; cannabidiol 100 μM
T2 construct: expressed in transfected cells; host or cells: CHO cells (ATCC CRL-9096), plasmid pcDNA3.1-mTrpv2, a gift from Korea University
T2 sequence (Q9WTR1 1-756): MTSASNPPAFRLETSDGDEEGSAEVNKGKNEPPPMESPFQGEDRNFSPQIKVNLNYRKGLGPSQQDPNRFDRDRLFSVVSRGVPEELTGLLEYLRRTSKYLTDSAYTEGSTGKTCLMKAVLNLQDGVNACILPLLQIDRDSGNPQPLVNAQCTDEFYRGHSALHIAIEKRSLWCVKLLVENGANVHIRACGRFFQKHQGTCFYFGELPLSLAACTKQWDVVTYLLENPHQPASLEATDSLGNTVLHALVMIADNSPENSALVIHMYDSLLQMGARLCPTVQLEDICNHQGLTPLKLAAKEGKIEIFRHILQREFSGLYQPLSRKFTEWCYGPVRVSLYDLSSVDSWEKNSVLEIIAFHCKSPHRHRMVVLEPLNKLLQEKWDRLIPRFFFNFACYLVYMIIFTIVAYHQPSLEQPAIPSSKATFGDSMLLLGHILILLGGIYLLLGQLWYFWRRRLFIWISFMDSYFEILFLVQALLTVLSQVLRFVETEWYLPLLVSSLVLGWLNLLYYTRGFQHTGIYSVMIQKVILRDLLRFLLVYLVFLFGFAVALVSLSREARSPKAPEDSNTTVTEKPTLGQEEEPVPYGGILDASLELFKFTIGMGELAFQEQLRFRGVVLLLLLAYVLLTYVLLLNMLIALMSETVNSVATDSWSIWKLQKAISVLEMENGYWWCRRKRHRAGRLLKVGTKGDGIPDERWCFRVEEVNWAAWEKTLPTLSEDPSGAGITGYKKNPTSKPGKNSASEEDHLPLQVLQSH
Protocol: as §1, §2

TRPV1 = target: T3, TRPV1 (Mus musculus, UniProt Q704Y3); assay: Whole-cell patch clamp in CHO cells transfected with mouse Trpv1 cDNA; type: cell-based; conditions: miR-711 10 μM; capsaicin 50 nM
T3 construct: expressed in transfected cells; host or cells: CHO cells (ATCC CRL-9096), plasmid pcDNA3.1-mTrpv1, a gift from Korea University
T3 sequence (Q704Y3 whole entry): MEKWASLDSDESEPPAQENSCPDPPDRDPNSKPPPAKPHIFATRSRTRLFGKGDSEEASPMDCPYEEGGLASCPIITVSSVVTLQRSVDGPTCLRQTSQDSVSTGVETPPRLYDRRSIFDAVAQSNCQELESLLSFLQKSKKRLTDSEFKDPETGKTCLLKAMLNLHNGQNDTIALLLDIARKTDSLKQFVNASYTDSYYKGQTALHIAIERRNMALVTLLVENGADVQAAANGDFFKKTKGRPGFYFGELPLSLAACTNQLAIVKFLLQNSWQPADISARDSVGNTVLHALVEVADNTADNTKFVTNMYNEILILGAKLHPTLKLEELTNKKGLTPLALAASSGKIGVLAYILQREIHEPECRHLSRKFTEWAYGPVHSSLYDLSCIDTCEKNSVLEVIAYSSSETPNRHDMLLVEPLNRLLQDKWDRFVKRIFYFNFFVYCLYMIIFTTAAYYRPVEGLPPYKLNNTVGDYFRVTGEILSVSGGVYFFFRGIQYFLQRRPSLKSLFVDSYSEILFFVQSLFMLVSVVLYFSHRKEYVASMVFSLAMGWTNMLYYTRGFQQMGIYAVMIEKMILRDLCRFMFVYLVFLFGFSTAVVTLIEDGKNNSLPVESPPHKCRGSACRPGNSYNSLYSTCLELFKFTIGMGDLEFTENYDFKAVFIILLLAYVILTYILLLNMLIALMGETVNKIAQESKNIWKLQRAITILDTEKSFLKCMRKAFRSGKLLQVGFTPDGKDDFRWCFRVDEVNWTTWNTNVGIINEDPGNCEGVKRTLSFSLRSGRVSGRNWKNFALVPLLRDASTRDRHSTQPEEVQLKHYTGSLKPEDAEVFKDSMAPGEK
Protocol: as §1, §2

mice [1] = assay: Evans blue extravasation, neurogenic inflammation in a hind paw; type: in vivo, mouse; conditions: intraplantar, 10 μL; capsaicin 1 mM, AITC 5 mM, miR-711 1 mM
Protocol: Evans Blue Extravasation. To examine neurogenic inflammation in a hind paw (Han et al., Neuron 2016, 92, 1279-1293), mice were anesthetized with 5% isoflurane. Evans blue (50 mg/kg body weight) was given intravenously 10 min before neurogenic irritant application. […] Evans blue was extracted from the tissues by incubation in 400 μL formamide at 37° C. for 48 hr. Evans blue was quantified by measuring the optical density of the formamide extract at 620 nm. Absorbance was normalized to per gram of tissue weight.

hTRPA1 [2] = target: T4, hTRPA1 (Homo sapiens, UniProt O75762); assay: RNA pull-down assay and immunoblotting; type: binding; conditions: RNA pull-down
T4 sequence (O75762 whole entry): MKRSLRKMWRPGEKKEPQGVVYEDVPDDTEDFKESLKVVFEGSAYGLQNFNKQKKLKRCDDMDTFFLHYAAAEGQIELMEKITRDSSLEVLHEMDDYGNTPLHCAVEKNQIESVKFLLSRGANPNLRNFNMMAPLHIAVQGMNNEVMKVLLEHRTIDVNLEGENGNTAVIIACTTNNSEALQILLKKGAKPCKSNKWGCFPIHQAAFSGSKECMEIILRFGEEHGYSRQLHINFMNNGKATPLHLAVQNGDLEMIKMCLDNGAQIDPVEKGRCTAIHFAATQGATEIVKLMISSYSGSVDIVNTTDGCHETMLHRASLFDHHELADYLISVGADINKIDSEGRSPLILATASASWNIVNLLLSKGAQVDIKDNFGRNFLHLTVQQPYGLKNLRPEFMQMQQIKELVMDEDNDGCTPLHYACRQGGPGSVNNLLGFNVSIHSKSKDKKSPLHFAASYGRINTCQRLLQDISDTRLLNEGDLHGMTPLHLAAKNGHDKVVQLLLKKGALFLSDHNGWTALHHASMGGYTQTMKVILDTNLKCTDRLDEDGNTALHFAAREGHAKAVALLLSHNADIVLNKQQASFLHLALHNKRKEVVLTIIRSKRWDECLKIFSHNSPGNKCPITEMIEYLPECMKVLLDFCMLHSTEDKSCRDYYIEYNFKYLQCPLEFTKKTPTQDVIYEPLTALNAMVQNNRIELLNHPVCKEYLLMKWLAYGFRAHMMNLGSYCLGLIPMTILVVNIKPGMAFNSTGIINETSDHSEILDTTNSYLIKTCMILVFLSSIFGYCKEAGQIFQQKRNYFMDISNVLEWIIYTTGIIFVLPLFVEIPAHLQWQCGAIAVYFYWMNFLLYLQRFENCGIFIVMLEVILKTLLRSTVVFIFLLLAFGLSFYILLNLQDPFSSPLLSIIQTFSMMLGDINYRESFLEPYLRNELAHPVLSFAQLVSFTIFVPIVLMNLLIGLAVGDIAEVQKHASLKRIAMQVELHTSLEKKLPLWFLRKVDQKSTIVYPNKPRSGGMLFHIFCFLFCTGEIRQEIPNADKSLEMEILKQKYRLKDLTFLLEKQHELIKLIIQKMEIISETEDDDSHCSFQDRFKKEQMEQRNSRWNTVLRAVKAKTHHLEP
Protocol: RNA Pull-Down Assay and Immunoblotting. hTRPA1-expressing HEK293 cells of equal amount (5×10^6) were plated onto 60 mm dishes, and 24 hr later, these cells were incubated with biotin-conjugated miR-711 or miR-711 (m6) in extracellular solution containing 140 mM NaCl, 5 mM KCl, 2 mM CaCl2, 1 mM MgCl2, 10 mM HEPES, and 10 mM glucose, adjusted to pH 7.4 for 15 min at 37° C. with 5% CO2. For crosslinking, 1% formaldehyde (vol/vol) was added at 37° C. for 10 min, then 12.5% glycine was applied to stop crosslinking by 5 min incubation at room temperature. Then the cells were collected and sonicated with ultrosonic probe sonicator (80% output, 5 s on and 10 s off) in 1 mL lysis buffer (1% Triton X-100, 50 mM Tris-HCl, 150 mM NaCl, 5 mM EDTA, pH7.4) on ice for 2 min. We then centrifuged the lysate at 13,000 rpm for 10 min at 4° C. and took 50 μL supernatant as lysate control. The remaining supernatant was added 20 μL streptadvilin agrose beads and incubated overnight. The pellets were collected after centrifuge at 6000 rmp for 30 s. For competing assay, miR-711 (10-50 μM) or mutant miR-711 (m6, 10-50 μM) were added 15 min before the incubation with biotin-conjugated miR-711 (10 μM). For immunoblotting, the lysates or beads were incubated in SDS-PAGE loading buffer for 30 min at 50° C., and supernatant was collected after centrifugation at 13000 rpm and decrosslink at 99° C. for 20 min. The samples were separated on an SDS-PAGE gel, transferred, and probed with TRPA1 antibody (1:1000; Alomone labs). The immunoreactive bands were detected with horseradish peroxidase-conjugated secondary antibody, visualized with enhanced chemiluminescence (Thermo scientific, Pittsburgh, Pa.), and quantified with Image-Pro Plus software (Media Cybernetics, Bethesda, Md.). Each experiment was repeated at least three times.

mice [3] = assay: Acute pruritus induced by intradermal pruritogens, effect of peptides; type: in vivo, mouse; conditions: peptide 2 mM, 15 μL intradermal; mmu-miR-711 1 mM, 10 μL
Protocol: (§3) Behavioral Assessment for Scratching (Itch) and Wiping (Pain). Mice were shaved on the cheek or nape after a brief anesthesia with isoflurane. Before experiments, mice were habituated in small plastic chambers (14×18×12 cm) daily for two days. The room temperature and humidity remained stable for all the experiments. […] After the injection, the number of scratches in 60 min was counted. A scratch was counted when a mouse lifted its hind paw to scratch the shaved region and returned the paw to the floor or to the mouth. A bout of wiping was defined as a continuous wiping movement with a forepaw directing at the area of the injection area (Shimada and LaMotte, Pain 2008, 139, 681-687). Scratching and wiping behavior was videoed for 30 min or 60 min using Sony HDR-CX610 camera. The video was subsequently played back offline and the numbers of scratches and wipes were quantified in a blinded manner.

hTRPA1 [4] = target: T4, hTRPA1; assay: Whole-cell patch clamp, inward currents in HEK293 cells expressing hTRPA1; type: cell-based; conditions: peptide 25 μM
Protocol: Cell Culture and Transfection. CD4^+ Myla cell line was cultured in RPMI 1640 media (GIBCO), supplemented with 2 mM Glutamine (GIBCO), 100 U/mL IL-2 (Sigma), 100 U/mL IL-4 (Sigma), and 10% human AB serum (Sigma). HuT 102 cell line was cultured in RPMI 1640 supplemented with pyruvate, HEPES, and 10% (v/v) fetal bovine serum (HyClone). HEK293-hTRPA1 stable cell line was cultured in MEM (GIBCO) containing 2 mM Glutamine, 4 μg/mL Blasticidin, 10% FBS (v/v). B16 and CHO cells were cultured in high glucose (4.5 g/L) Dulbecco's Modified Eagle's Medium (GIBCO) containing 10% (v/v) fetal bovine serum (GIBCO). Culture media were supplemented with 50 units/mL of penicillin and 50 μg/mL streptomycin, and cultures were maintained with 5% CO2 in 37° C. incubator. Transfection (2 μg cDNA) was performed with Lipofectamine™ 2000 Reagent (Invitrogen) at 80% confluency and the transfected cells were cultured in the same media for 48 hr before electrophysiological and biochemical studies.
Whole-Cell Patch Clamp Recordings in HEK293 Cells, CHO Cells, and DRG Neurons. Whole-cell patch clamp recordings were performed at room temperature using an Axopatch-200B amplifier (Axon Instruments) with a Digidata 1440B (Axon Instruments). In this study, we only examined small-diameter mouse DRG neurons (<25 μM) and small-diameter human DRG neurons (<55 μM). The patch pipettes were pulled from borosilicate capillaries (World Precision Instruments) using a P-97 Flaming/Brown micropipette puller (Sutter Instrument). Pipette resistance was 4-6 MΩ for whole-cell and outside-out recording. For inward current recordings in mouse and human DRG neurons, HEK293 cells, and CHO cells, the internal solution contains (in mM): 140 CsCl, 10 EGTA, 10 HEPES, and 2 Mg-ATP, adjusted to pH 7.3 with CsOH. Whole cell recordings were performed in an extracellular solution that contains (in mM): 140 NaCl, 5 KCl, 2 MgCl2, 10 HEPES, and 10 glucose, adjusted to pH 7.4 with NaOH and osmolarity to 300-310 mOsm. […] Action potential recordings were performed in small-diameter DRG neurons, with the following solutions: i) internal pipette solution contains: 126 mM K-gluconate, 10 mM NaCl, 1 mM MgCl2, 10 mM EGTA, 10 mM HEPES and 2 mM Na-ATP, adjusted to pH 7.4 with KOH and osmolarity to 295-300 mOsm), and ii) extracellular solution contains: 140 mM NaCl, 5 mM KCl, 2 mM MgCl2, 2 mM CaCl2, 10 mM HEPES, 10 mM glucose, adjusted to pH 7.4 with KOH.

mice [5] = assay: Persistent itch after intradermal adenovirus (AV) overexpression of hsa-miR-711; type: in vivo, mouse; conditions: 10 days after the AV injection, A-967079 50 μM, hsa-miR-711 inhibitor 100 μM, blocking peptide 2 μM
Protocol: as §3
miRNA Measurement by Quantitative Real-Time RT-PCR (qPCR). Total RNA was isolated from serum of CTCL mice or adenovirus-treated mice using Qiazol Lysis Reagent (QIAGEN) together with miRNeasy Serum/Plasma Kit (Park et al., Neuron 2014, 82, 47-54). All RNA samples were immediately used or kept at −80° C. until further processing. To convert mature miRNA into cDNA, 6 μl of total RNA solution were reverse transcribed using the miScript II RT Kit (including polyadenylation of miRNAs and reverse transcription using an oligo-dT that binds to a universal RT-sequence). Specific miRNA levels were quantified by qPCR using miScript SYBR Green Kit including miScript miRNA assay for hsa-miR-711, hsa-miR21, hsamiR155, and hsa-miR-326, together with the universal RT primer, according to the manufacturer's protocol (CFX96 Real-Time system, Bio-Rad). Relative quantities of miRNAs were calculated using the Ct value after normalization to control miRNAs. Caenorhabditis elegans miRNA-39 (cel-miRNA-39) was included as spiked-in control for extracellular miRNA.

CTCL mice = assay: Mouse CTCL xenograft model of chronic itch; type: in vivo; conditions: given 20 days after Myla cell inoculation; hsa-miR-711 inhibitor 100 μM, HC030031 200 μM, A967079 50 μM, peptides 2 mM
Protocol: Mouse CTCL Xenograft Model of Chronic Itch. We developed a murine xenograft model of cutaneous T cell lymphoma (CTCL) using immune-deficient mice (NOD.CB17-Prkdcscid, 8-10 weeks old, male). CD4^+ MyLa cell line was purchased from Sigma (Ca #95051032). The cell line was established from a plaque biopsy of a person with mycosis fungoides stage II by inclusion of IL-2 and IL-4 in the culture medium. CTCL was generated via intradermal injection of CD4^+ Myla cells (1×10^5 cells/μl, 100 μL) on the nape of the neck. Tumor growth was assessed for 40 days by measurements of tumor diameters.
as §3
Generation of Myla Stable Cell Line Expressing miR-711 Inhibitor. CD4^+ Myla cells were plated at a density of 2×10^5 cells/mL in 2 mL culture media in 6-well plates. For each well, 20 μL of the MISSION Lenti microRNA Inhibitor (hsa-miR-711) lentivirus (Sigma) with a titer of 2.6×10^7 Tu/mL were added. Cell mixtures were incubated at 37° C. for 48 hr, washed with PBS three times, and re-suspended in fresh culture media, and 24 hr later, 1 μg/mL puromycin was added to the cells to select stably transduced cell populations. We tried to grow and passage the cells as much as necessary (usually 3 days) and maintained selection pressure by keeping 1 μg/mL puromycin in the medium. After 4 weeks, a large number of the cells were killed; the remaining cells retained the expression of the plasmid, which stably integrates into the genome of the targeted cells. These cells were used for inoculation to generate the CTCL model for testing the effects of miR-711 inhibitor on chronic itch and tumor growth.

T1 sequence (Q9EPK8 whole entry): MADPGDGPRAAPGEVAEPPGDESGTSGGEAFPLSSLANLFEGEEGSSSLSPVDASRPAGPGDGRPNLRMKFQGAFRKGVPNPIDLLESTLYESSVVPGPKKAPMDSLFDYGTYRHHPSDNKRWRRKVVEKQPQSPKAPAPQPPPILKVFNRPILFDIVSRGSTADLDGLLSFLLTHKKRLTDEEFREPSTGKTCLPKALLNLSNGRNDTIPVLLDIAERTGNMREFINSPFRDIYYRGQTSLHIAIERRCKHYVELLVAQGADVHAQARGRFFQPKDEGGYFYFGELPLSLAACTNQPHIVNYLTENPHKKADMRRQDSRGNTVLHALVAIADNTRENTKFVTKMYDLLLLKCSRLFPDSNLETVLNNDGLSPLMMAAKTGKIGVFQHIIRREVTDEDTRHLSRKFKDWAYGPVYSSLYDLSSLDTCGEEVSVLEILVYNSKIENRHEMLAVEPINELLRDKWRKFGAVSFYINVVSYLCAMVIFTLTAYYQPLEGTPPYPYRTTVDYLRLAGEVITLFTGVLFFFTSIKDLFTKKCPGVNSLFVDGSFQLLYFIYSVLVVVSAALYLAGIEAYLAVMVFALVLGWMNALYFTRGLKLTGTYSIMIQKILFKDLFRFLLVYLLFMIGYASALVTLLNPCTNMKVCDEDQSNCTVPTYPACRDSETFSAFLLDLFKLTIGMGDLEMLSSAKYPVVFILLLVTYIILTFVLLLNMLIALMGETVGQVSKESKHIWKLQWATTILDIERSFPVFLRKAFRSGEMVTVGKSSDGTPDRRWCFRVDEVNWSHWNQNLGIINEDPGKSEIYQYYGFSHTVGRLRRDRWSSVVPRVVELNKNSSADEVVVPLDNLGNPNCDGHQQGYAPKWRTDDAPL

Molecule: CC(C)C[C@H](NC(=O)c1cc2ccccc2s1)C(=O)N1CCN(C(=O)[C@H](CO)NS(=O)(=O)c2ccc(Cl)cc2Cl)CC1 [GSK1016790A]
- inward currents (TRPV4): inward currents induced

Molecule: C=C(C)[C@@H]1CCC(C)=C[C@H]1c1c(O)cc(CCCCC)cc1O [cannabidiol]
- inward currents (TRPV2): inward currents induced

Molecule: COc1cc(CNC(=O)CCCC/C=C/C(C)C)ccc1O [capsaicin]
- inward currents (TRPV1): inward currents induced
- neurogenic inflammation in hind paws (Evans blue test) (mice [1]): elicited robust neurogenic inflammation

Molecule: NH2-FRNELAAAVATFGQL-COOH (H-FRNELAAAVATFGQL-OH) [mutated peptide]
- disruption of the miR-711/TRPA1 interaction (hTRPA1 [2]): Neither did this mutated peptide block
- effect on miR-711-induced pruritus (mice [3]): nor did this peptide inhibit
- inhibition of miR-711-induced TRPA1 inward currents (hTRPA1 [4]): nor did this peptide inhibit

Molecule: miR-711 inhibitor: hsa-miR-711 inhibitor with a complementary sequence to hsa-miR-711: cuuacgucucucccuggguccc (SEQ ID NO: 22) (CUUACGUCUCUCCCUGGGUCCC; listed as RNA, chemistry not given here)
- effect on hsa-miR-711 AV-induced persistent itch (mice [5]): Inhibition
- effect on CTCL-evoked chronic itch (CTCL mice): reduced chronic pruritus

Reference: patent publication US20210283163A1, “COMPOSITIONS AND METHODS FOR THE TREATMENT OF ACUTE AND CHRONIC PRURITIS” (Duke University, priority 2018, published 2021)
